For this test, the target named is T1, Xenopus interphotoreceptor retinoid-binding protein (xIRBP) (Xenopus laevis, UniProt Q7SZI7).
T1 construct: gene rbp3; recombinant full-length four-module xIRBP (1197 amino acids; 131 kDa), free of its thioredoxin fusion partner; vector-derived N-terminal G-L-G-D-P
Nature of the test: fluorescence titration: retinol fluorescence enhancement (also tryptophan quenching, Kd […], and energy transfer, Kd […]).

We go through one compound from publication PMC2185538, “Purification of the full-length Xenopus interphotoreceptor retinoid binding protein and growth of diffraction-quality crystals” (Molecular Vision, 2007).

T1 sequence (Q7SZI7 23-1219): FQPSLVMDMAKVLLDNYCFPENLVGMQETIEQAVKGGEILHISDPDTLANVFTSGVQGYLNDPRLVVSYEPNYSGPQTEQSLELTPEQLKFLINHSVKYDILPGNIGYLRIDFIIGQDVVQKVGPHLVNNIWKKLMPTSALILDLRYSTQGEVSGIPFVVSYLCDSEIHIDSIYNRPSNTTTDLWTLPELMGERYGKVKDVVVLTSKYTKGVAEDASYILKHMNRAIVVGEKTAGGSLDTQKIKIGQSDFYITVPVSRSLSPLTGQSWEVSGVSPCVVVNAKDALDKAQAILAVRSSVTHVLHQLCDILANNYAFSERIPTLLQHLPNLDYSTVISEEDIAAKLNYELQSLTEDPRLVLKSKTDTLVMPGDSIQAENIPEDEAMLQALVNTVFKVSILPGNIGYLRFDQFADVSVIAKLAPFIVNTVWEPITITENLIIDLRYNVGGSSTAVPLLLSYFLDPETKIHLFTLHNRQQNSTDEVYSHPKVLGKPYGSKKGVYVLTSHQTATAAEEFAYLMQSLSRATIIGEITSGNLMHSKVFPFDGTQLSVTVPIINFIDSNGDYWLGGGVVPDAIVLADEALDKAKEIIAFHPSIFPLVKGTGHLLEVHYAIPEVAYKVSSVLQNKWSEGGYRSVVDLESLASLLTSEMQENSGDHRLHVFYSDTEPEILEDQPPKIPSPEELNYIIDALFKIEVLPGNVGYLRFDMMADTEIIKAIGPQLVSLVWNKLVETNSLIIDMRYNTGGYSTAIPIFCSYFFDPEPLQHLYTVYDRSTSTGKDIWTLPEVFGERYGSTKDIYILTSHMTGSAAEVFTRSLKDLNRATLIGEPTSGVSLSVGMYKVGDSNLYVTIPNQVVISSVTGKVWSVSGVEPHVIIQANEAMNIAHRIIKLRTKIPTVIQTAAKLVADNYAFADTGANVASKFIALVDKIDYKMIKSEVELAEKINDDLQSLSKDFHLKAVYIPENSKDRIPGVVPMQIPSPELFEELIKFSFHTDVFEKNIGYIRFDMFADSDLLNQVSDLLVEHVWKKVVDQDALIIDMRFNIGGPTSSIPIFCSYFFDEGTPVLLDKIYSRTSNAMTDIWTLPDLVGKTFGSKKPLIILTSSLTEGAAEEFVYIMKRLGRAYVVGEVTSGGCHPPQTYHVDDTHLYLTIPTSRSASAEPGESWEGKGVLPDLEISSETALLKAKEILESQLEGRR

The Kd is the concentration at which binding is half-saturated. For `CC1=C(/C=C/C(C)=C/C=C/C(C)=C/CO)C(C)(C)CCC1` [all-trans retinol], the Kd came out at 150 ± 30 nM.
